According to patent publication US10919891B2, “Heterocyclic compound” (TAKEDA PHARMACEUTICAL COMPANY LIMITED, priority 2017, dated 2021):

What was measured:
human CaSR = molecular target: T1, human CaSR (Homo sapiens, UniProt P41180); experiment: Human CaSR Antagonist Activity (CHO cells, NFAT-Luciferase reporter); type: cell-based; conditions: CHO, 2 h, 3.3 μm test compound; CaCl2 final 1.3 mM; 100% = reference carboxamide at 10 μM; read-out: Inhibition rate (%) at 3.3 μm
T1 construct: expressed in transfected cells; host or cells: CHO cells
T1 sequence (P41180 20-1078): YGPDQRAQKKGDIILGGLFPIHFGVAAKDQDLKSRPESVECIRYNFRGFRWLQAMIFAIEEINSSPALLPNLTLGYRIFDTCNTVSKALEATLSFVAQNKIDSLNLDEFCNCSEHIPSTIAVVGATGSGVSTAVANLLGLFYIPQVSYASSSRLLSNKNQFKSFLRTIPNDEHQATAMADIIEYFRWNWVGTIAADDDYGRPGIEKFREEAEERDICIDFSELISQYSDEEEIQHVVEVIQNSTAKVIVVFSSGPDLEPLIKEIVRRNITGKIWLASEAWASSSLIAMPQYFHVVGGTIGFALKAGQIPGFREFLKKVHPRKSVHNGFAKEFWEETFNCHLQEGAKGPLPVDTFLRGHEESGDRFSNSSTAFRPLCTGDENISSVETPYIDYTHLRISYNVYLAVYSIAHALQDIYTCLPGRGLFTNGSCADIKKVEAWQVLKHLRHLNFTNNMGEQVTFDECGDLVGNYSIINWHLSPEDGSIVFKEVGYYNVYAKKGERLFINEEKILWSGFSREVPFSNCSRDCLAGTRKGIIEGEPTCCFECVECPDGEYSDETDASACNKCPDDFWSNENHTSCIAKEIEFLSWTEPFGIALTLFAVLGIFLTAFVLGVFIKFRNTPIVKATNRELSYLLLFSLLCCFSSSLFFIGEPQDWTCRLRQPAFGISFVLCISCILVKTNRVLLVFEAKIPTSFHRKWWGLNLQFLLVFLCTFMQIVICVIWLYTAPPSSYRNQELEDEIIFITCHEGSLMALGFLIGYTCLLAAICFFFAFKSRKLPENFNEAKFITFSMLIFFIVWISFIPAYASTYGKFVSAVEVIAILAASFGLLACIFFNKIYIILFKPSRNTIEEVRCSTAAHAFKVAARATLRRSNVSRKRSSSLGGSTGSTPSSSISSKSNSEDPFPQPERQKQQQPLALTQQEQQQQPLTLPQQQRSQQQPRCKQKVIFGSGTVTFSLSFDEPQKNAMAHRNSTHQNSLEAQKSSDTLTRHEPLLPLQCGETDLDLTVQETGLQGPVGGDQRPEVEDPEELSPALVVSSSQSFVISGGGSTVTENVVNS
Method: CaSR antagonist activity measurement was performed using Bright-Glo Luciferase assay system (Promega Corporation). CHO cells in which human CaSR and NFAT-Luciferase reporter gene were forcibly expressed were suspended in MEM alpha (Wako Pure Chemical Industries, Ltd.) containing 10% dialyzed serum (HyClone). The cells in suspension was seeded in 384-well white plate (Corning) at 10,000/20 μL/well, and cultured in an incubator of 37° C., 5% CO2 for one day. A diluent of Test compound was prepared with assay buffer (MEM alpha containing 10 mM HEPES (Life Technologies) and 10% dialysis serum). The diluent was added to the plate at 5 μL/well and allowed to stand at 37° C. for 10 minutes. Further, a diluent of 7.8 mM CaCl2 prepared with assay buffer (final concentration 1.3 mM) was added at 5 μl/well and allowed to stand in an incubator of 37° C., 5% CO2 for 2 hours. Bright-Glo reagents (Promega Corporation) were added at 10 μL/well, and the obtained mixture was stirred for 5 minutes, and then luminescence intensity was measured using Multi-label reader Envision (PerkinElmer, Inc.). The activity (%) of the test compound was calculated with the definitions in which the luminescence intensity when DMSO is added in place of the test compound is defined as 0% inhibition; and the luminescence intensity when (5R)—N-(1-ethyl-1-(4-ethylphenyl)propyl)-2,7,7-trimethyl-5-phenyl-4,5,6,7-tetrahydropyrazolo[1,5-a]Pyrimidine-3-carboxamide at final concentration of 10 μM is added is defined as 100% inhibition.

CYP3A = experiment: CYP Induction (CYP3A activity in cryopreserved hepatocytes, P450-Glo CYP3A4 assay); type: in vitro ADME; conditions: % of positive control (inducibility by 10 μmol/L rifampicin = 100%); hepatocytes treated 3 days
Method: Cryopreserved hepatocytes were thawed in a culture medium (In VitroGRO™ CP Medium, Celsis In Vitro Technologies, U.S.A.), and the resultant was added to BioCoat™ Matrigel® Matrix Thin-Layer 96 well (Becton, Dickinson and Company, U.S.A.) at a concentration of 40,000 cells/well. After culturing for 24 hours, the culture medium was removed, and replaced with an incubation medium (In VitroGRO™, HI Medium with Torpedo Antibiotic Mix, Celsis In Vitro Technologies, U.S.A.). Cells were cultured for an additional 3 days. The medium was removed on day 4, and the remained cells were treated in the induction medium containing a test compound for 3 days in the presence or absence of 10 μmol/L rifampicin. The induction medium was replaced every day. The test compound addition wells in the presence of 10 μmol/L rifampicin were used to evaluate the inhibitory effect of the test compound on the inducibility of the CYP3A activity by rifampicin. The CYP3A activity was evaluated by measuring luciferin generating amount after the addition of 2 μmol/L luciferin-IPA using IPA P450-Glo™ CYP3A4 assay systems (Promega Corporation, U.S.A.). All cultures were carried out under a humidified environment at 37° C., 5% CO2. The inducibility by rifampicin was defines as 100%, and the inducibility of the test compound (% of positive control) was calculated from the following equation: [(luciferin fluorescence intensity in the absence of rifampicin and the presence of test compound)−(luciferin fluorescence intensity in the absence of rifampicin and test compound)/(luciferin fluorescence intensity in the presence of rifampicin and the absence of test compound)−(Luciferin fluorescence intensity in the absence of rifampicin and test compound)]×100.

CYP3A4 = molecular target: T2, CYP3A4 (Homo sapiens, UniProt P08684); experiment: CYP3A4 TDI (human liver microsomes, testosterone 6β-hydroxylation); type: in vitro ADME; conditions: test compound 30 μM, 60 min vs 0 min preincubation with NADPH, 37° C.
T2 construct: Human liver microsomes purchased from XenoTech, LLC (Lenexa, Kans.) was used; tissue XenoTech, LLC; host or cells: human liver microsomes
Method: Human liver microsomes purchased from XenoTech, LLC (Lenexa, Kans.) was used. Test compounds were dissolved in acetonitrile, acetonitrile/methanol (1:1, v/v) or DMSO/acetonitrile (1:4, v/v). To a human liver microsomes solution adjusted with phosphate buffer (pH 7.4), the test compound solution was added to obtain a human liver microsomes reaction solution having the test compound concentration of 30 μM. To the human liver microsome reaction solution, NADPH production system was added, and the mixture was preincubated at 37° C. for 0 minutes or 60 minutes. After the preincubation, probe substrate testosterone was added, and testosterone metabolite 6β-hydroxytestosterone was analyzed by LC/MS/MS to evaluate CYP3A4 enzymatic activity.
The enzyme activity (% of control) at each preincubation point was calculated from the following equation: % of control=[(activity of test compound addition group)/(activity of test compound non-addition group)]×100.
The remaining activity (% remaining) after 60 minutes of preincubation was calculated from the following equation: Remaining activity (%)=[activity after 60 minutes (% of control60 min)]/[activity after 0 minutes (% of control0 min)]×100.

[1] = test system: aortic banding (TAC) models; conditions: cited from earlier work
[2] = dosing after cardiac loading; cited from earlier work
[3] = test system: hypoxia-induced pulmonary hypertension (HPH) mice; conditions: cited from earlier work
[4] = test system: monocrotaline (MCT)-induced pulmonary hypertension rats; conditions: cited from earlier work

T2 sequence (P08684 whole entry): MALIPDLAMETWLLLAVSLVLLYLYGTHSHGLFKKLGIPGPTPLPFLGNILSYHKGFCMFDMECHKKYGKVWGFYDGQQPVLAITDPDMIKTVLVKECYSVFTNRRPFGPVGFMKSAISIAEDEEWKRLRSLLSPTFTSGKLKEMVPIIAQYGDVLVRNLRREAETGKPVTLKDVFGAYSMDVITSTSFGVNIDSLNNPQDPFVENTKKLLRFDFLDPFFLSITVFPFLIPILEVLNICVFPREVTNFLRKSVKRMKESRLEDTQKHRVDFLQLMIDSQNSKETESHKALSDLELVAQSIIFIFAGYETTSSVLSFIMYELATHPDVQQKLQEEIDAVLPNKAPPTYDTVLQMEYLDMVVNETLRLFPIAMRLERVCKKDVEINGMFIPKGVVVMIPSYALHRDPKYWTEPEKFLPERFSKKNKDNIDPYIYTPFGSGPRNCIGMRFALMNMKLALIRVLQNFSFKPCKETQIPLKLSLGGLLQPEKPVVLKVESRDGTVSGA

Row | SMILES | inhibition at 3.3 µM (human CaSR) [%] | Inducibility (%) (CYP3A) | Remaining Activity (%) (CYP3A4) | cardiac hypertrophy [1] | cardiac hypofunction [2] | cardiac hypertrophy, elevated right ventricular systolic pressure, fibrosis of cardiac muscle tissue, pulmonary vascular remodeling [3] | cardiac hypertrophy, elevated right ventricular systolic pressure, fibrosis of cardiac muscle tissue, pulmonary vascular remodeling [4]
1 | CC1(C)C[C@H](c2ccccc2)Nc2c(C(=O)N3CC4CC4(c4cc(Cl)cc(Cl)c4)C3)cnn21 (single isomer, unassigned) [Example 4] | 100 | 10.7 | 87.0 |  |  |  | 
2 | CC1(C)C[C@H](c2ccccc2)Nc2c(C(=O)N3CC4CC4(c4ccc(C(F)(F)F)cc4)C3)cnn21 (single isomer, unassigned) [Example 7] | 97 | 2.3 | 78.1 |  |  |  | 
3 | CC1(C)C[C@H](c2ccccc2)Nc2c(C(=O)N3CC4CC4(c4cc(Cl)cc(C(F)(F)F)c4)C3)cnn21 (single isomer, unassigned) [Example 9] | 96 | 9.0 | 86.4 |  |  |  | 
4 | CC1(C)C[C@H](c2ccccc2)Nc2c(C(=O)N3CC4CC4(c4ccc(C(F)(F)F)c(Cl)c4)C3)cnn21 (single isomer, unassigned) [Example 11] | 99 | 1.2 | 97.7 |  |  |  | 
5 | CC1(C)C[C@H](c2ccccc2)Nc2c(C(=O)N3CC4CC4(c4ccc(Cl)c(C(F)(F)F)c4)C3)cnn21 (single isomer, unassigned) [Example 13] | 101 | 16.7 | 81.8 |  |  |  | 
6 | C[C@@H](N[C@H]1CCCC[C@@H]1NC(=O)c1ccc(Cl)cc1)c1cccc2ccccc12 [Calhex231] |  |  |  | improves cardiac hypertrophy | fails to improve cardiac hypofunction |  | 
7 | CC(C)(Cc1ccc2ccccc2c1)NC[C@@H](O)COc1cccc(Cl)c1C#N [NPS-2143] |  |  |  |  |  | suppressed | suppressed
